Measured values from PubChem BioAssay (NCI).
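Tested at 5 concentrations; 48 h exposure; 96-well plates; endpoints linearly interpolated, else capped at highest concentration. The concentration for 50% growth inhibition is given as GI50. At the TGI there is no net growth.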

Assays:
Test in all cases: NCI-60 cell line screen, 48 h
MDA-MB-435 = test system: MDA-MB-435
SK-MEL-2 melanoma = test system: SK-MEL-2 melanoma
MALME-3M melanoma = test system: MALME-3M melanoma
NCI-H226 lung = test system: NCI-H226 lung
ACHN renal = test system: ACHN renal
HL-60(TB) leukemia = test system: HL-60(TB) leukemia
UO-31 renal = test system: UO-31 renal
HCC-2998 colon = test system: HCC-2998 colon
HCT-116 colon = test system: HCT-116 colon
NCI-H23 lung = test system: NCI-H23 lung

Row | SMILES | TGI (MDA-MB-435) [µM] | TGI (SK-MEL-2 melanoma) [µM] | TGI (MALME-3M melanoma) [µM] | TGI (NCI-H226 lung) [µM] | TGI (ACHN renal) [µM] | TGI (HL-60(TB) leukemia) [µM] | TGI (UO-31 renal) [µM] | TGI (HCC-2998 colon) [µM] | TGI (HCT-116 colon) [µM] | TGI (NCI-H23 lung) [µM] | GI50 (MDA-MB-435) [µM] | GI50 (SK-MEL-2 melanoma) [µM] | GI50 (NCI-H226 lung) [µM] | GI50 (ACHN renal) [µM] | GI50 (HL-60(TB) leukemia) [µM] | GI50 (UO-31 renal) [µM] | GI50 (HCC-2998 colon) [µM] | GI50 (HCT-116 colon) [µM] | GI50 (NCI-H23 lung) [µM]
1 | COc1ccc(N2C(=O)C3c4[nH]c5ccc(F)cc5c4C4CCC(C(C)(C)C)CC4C3C2=O)cc1 (configuration not stated) | > 10 | > 10 | > 10 | > 10 | > 10 | > 10 | > 10 | > 10 | > 10 | > 10 |  |  |  |  |  |  |  |  | 
2 | O=C(NCCNc1nccc(-c2c(-c3cccc(O)c3)nc3sccn23)n1)c1ccccc1 | 12.8 | 12.9 |  | 45.3 | 34.9 | 29.6 | 88.7 | 31.2 | 17.5 | 30.7 | 0.578 | 2.94 | 7.95 | 6.43 | 10.2 | 12.2 | 13.8 | 4.82 | 10
3 | Cc1nc2[nH]ncn2c(=O)c1CCO | > 10 | > 10 | > 10 | > 10 | > 10 | > 10 | > 10 | > 10 | > 10 | > 10 |  |  |  |  |  |  |  |  | 
4 | COc1ccc2c3c([nH]c2c1)CCN(Cc1ccccc1)C3 | 60.6 |  | 34.6 | 73.2 | > 100 | 35.8 | 39.6 | 34.1 | > 100 | > 100 |  |  |  |  |  |  |  |  | 
5 | CCOC(=O)Cc1cnc(NC(NC(=O)CC)(C(F)(F)F)C(F)(F)F)s1 | > 100 | > 100 | > 100 | > 100 | > 100 | > 100 | > 100 | > 100 | > 100 | > 100 |  |  |  |  |  |  |  |  | 
